SMILES strings stand for the structures.

Experimental findings from paper PMC10829382, “Purification and characterization of L-arginine deiminase from Penicillium chrysogenum” (BMC Microbiology, 2024) are described below.

Test [1] deals with T1, L-arginine deiminase (ADI) from Penicillium chrysogenum.
T1 construct: single 49 kDa band on SDS-PAGE
The test is described as follows: ammonia release, Nessler's reagent, […] nm; residual activity at […]. The class given is biochemical.

Test [2] has as its system T1, L-arginine deiminase (ADI) from Penicillium chrysogenum. The test is described as follows: ammonia release, Nessler's reagent, […] nm; Eadie-Hofstee plot. Conditions: 40 °C, 30 min; phosphate buffer pH 7.5 in the standard assay. The class given is biochemical.
The mark [3] stands for this setting: chelator in the reaction mixture, L-arginine as substrate, 40 °C.

For the molecule `O=C(O)CN(CCN(CC(=O)O)CC(=O)O)CC(=O)O` [EDTA], the IC50 in test [1] (setting [3]) stood at 5.19 mM. In test [1] (covalent, arginyl modifier, 50 mM sodium borate pH 7.0, room temperature), `CC(=O)C(C)=O` [butanedione] returned an IC50 of 4.66 mM.

For `CC(=O)n1ccnc1` [N-acetyl-imidazole], in test [1] (covalent, tyrosyl modifier, 150 mM phosphate pH 7.5, 37 °C, 20 min), the IC50 worked out at 5.4 mM.

`CN(C)c1cccc2c(S(=O)(=O)Cl)cccc12` [dansyl chloride] had a half-inhibitory concentration (IC50) in test [1] (covalent, lysyl modifier, 100 mM Tris-HCl pH 7.0, 4 °C, 1 h) of 6.48 mM. In test [1] (covalent, sulfhydryl modifier, pre-incubated 1 h at 25 °C, 100 mM Tris-HCl pH 5.0, 1 mM EDTA), `CCN1C(=O)C=CC1=O` [N-ethylmaleimide] had an IC50 of 4.95 mM. In turn, `O=C1CCC(=O)N1Br` [N-bromosuccinimide] registered an IC50 in test [1] (covalent, tryptophanyl modifier, 1 h in 150 mM phosphate pH 7.5, then dialysed before assay) of 5 mM. In the case of `c1ccc(-c2ccccn2)nc1` [α,α-dipyridyl], in test [1] (setting [3]), the IC50 amounted to 7.46 mM. In the case of `N=C(N)NCCC[C@H](N)C(=O)O` [L-arginine], in test [2], the Km is 750 µM. Take `c1cnc2c(c1)ccc1cccnc12` [o-phenanthroline]: the IC50 in test [1] (setting [3]) was 4.79 mM. Regarding `CCOC(=O)OC(=O)OCC` [diethylpyrocarbonate], in test [1] (covalent, histidyl modifier, assay buffer, 25 °C, 5 min), the IC50 was 6.44 mM.
